Measurements reported in patent EP1202975B1, “SUBSTITUTED POLYCYCLIC ARYL AND HETEROARYL PYRAZINONES USEFUL FOR SELECTIVE INHIBITION OF THE COAGULATION CASCADE” (Pharmacia Corporation, priority 1999, dated 2000).
Like-named read-outs stand apart in the source and are kept apart here.

What was measured:
TF-VIIa = target: T1, TF-VIIa (Homo sapiens, UniProt P08709); assay: TF-VIIa Assay; format: biochemical
T1 construct: 2nM recombinant human factor VIIa; purchased American Diagnostica, Greenwich CT; host or cells: soluble TF made in house in E. coli
T1 sequence (P08709 213-466 limits assumed): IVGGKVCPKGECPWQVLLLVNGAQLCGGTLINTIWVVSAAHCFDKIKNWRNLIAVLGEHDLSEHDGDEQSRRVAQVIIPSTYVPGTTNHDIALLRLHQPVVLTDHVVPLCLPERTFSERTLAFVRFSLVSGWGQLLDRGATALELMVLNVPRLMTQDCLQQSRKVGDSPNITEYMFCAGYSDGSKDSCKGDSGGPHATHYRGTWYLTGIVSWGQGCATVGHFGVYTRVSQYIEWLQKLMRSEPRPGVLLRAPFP
T1 sequence (P08709 61-212 limits assumed): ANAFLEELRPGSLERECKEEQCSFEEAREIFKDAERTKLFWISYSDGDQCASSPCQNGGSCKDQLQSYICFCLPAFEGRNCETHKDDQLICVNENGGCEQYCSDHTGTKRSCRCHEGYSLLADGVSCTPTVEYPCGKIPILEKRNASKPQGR
T1 sequence (P13726 33-251 partner limits assumed): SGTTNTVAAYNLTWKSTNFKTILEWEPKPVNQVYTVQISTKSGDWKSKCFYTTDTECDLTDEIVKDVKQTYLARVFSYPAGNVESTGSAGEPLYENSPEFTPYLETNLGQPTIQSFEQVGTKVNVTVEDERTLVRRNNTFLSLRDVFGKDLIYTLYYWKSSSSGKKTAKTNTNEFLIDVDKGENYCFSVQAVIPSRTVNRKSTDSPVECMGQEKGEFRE

Human factor Xa = Human factor Xa (Homo sapiens, UniProt P00742)
Chain of Human factor Xa (P00742 235-488 limits assumed): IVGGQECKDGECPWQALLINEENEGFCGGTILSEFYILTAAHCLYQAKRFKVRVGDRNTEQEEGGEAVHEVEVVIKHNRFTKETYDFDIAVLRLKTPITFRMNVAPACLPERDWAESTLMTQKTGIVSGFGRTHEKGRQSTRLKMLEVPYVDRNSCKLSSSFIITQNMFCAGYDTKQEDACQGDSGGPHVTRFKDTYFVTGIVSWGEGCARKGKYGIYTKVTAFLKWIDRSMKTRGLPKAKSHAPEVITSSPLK
Chain of Human factor Xa (P00742 41-179 limits assumed): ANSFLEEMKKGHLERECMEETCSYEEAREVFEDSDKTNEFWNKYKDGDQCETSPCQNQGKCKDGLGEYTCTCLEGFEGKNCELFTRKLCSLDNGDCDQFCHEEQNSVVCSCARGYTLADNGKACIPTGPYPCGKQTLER

[1] = read-out: IC50 or % Inhibition TF-VIIa (30 µM); cells given as a plain number (IC50)
[2] = cells given as a plain number (IC50); read-out: IC50 or % Inhibition TF-VIIa (30 µM)

Row | SMILES | IC50 (TF-VIIa; [1]) [µM] | IC50 or % Inhibition Factor Xa (30 µM) (Human factor Xa) [%] | IC50 (TF-VIIa; [2]) [µM] | IC50 or % Inhibition TF-VIIa (30 µM) (TF-VIIa) [%] | % Inhibition Factor Xa (100 µM) (Human factor Xa) [%]
1 | Cc1c(Cl)nc(NCCc2ccncc2)c(=O)n1CC(=O)NCc1ccc(C(=N)N)cc1 [1471-5] | 8.69 | 12 | – | – | –
2 | N=C(N)c1ccc(CNC(=O)Cn2c(-c3ccccc3)c(Cl)nc(NCc3ccccc3)c2=O)cc1 [1471-9] | – | 29 | 0.77 | – | –
3 | N=C(N)c1ccc(CNC(=O)Cn2c(-c3ccccc3)c(Cl)nc(NCc3ccncc3)c2=O)cc1 [1471-11] | 1.69 | 9 | – | – | –
4 | N=C(N)c1ccc(CNC(=O)Cn2c(-c3ccc(Cl)cc3)c(Cl)nc(NCCc3ccc(Cl)cc3)c2=O)cc1 [1471-18] | 11.2 | 26 | – | – | –
5 | N=C(N)c1ccc(CNC(=O)Cn2c(-c3ccc(Cl)cc3)c(Cl)nc(NCCc3cccc(Cl)c3)c2=O)cc1 [1471-22] | 14.6 | 28 | – | – | –
6 | N=C(N)c1ccc(CNC(=O)Cn2c(-c3cccc(Cl)c3)c(Cl)nc(NCCN3CCOCC3)c2=O)cc1 [1471-28] | 7.22 | 8 | – | – | –
7 | N=C(N)c1ccc(CNC(=O)Cn2c(-c3cccc(Cl)c3)c(Cl)nc(NCCc3ccccc3)c2=O)cc1 [1471-31] | – | 17 | 1.98 | – | –
8 | COc1ccc(-c2c(Cl)nc(NCCc3ccc(Cl)cc3)c(=O)n2CC(=O)NCc2ccc(C(=N)N)cc2)cc1 [1471-34] | 17.5 | 24 | – | – | –
9 | COc1ccc(-c2c(Cl)nc(NCc3ccncc3)c(=O)n2CC(=O)NCc2ccc(C(=N)N)cc2)cc1 [1471-35] | – | 22 | – | 37 | –
10 | COc1ccc(-c2c(Cl)nc(NCCc3ccncc3)c(=O)n2CC(=O)NCc2ccc(C(=N)N)cc2)cc1 [1471-37] | – | 7 | – | 39 | –
11 | N=C(N)c1ccc(CNC(=O)Cn2c(-c3ccc4c(c3)OCO4)c(Cl)nc(NCc3ccncc3)c2=O)cc1 [1471-43] | 25.3 | 18 | – | – | –
12 | N=C(N)c1ccc(CNC(=O)Cn2c(-c3ccc4c(c3)OCO4)c(Cl)nc(NCCc3ccncc3)c2=O)cc1 [1471-45] | 13.2 | 24 | – | – | –
13 | N=C(N)c1ccc(CNC(=O)Cn2c(-c3ccc4c(c3)OCO4)c(Cl)nc(NCCc3ccccc3)c2=O)cc1 [1471-47] | 12.6 | 22 | – | – | –
14 | CCc1c(Cl)nc(NCc2ccncc2)c(=O)n1CC(=O)NCc1ccc(C(=N)N)cc1 [1471-59] | 7.52 | 0 | – | – | –
15 | CCc1c(Cl)nc(NCCc2cccc(Cl)c2)c(=O)n1CC(=O)NCc1ccc(C(=N)N)cc1 [1471-62] | – | 0 | – | 4 | –
16 | CCc1c(Cl)nc(NCCc2ccccc2)c(=O)n1CC(=O)NCc1ccc(C(=N)N)cc1 [1471-63] | – | 2 | 3.45 | – | –
17 | CCc1c(Cl)nc(NCCc2cccnc2)c(=O)n1CC(=O)NCc1ccc(C(=N)N)cc1 [1471-64] | 3.02 | 2 | – | – | –
18 | N=C(N)c1ccc(CNC(=O)Cn2c(-c3ccc(-c4ccccc4)cc3)c(Cl)nc(NCc3ccncc3)c2=O)cc1 [1471-67] | – | 16 | – | 12 | –
19 | N=C(N)c1ccc(CNC(=O)Cn2c(-c3ccc(-c4ccccc4)cc3)c(Cl)nc(NCCc3cccc(Cl)c3)c2=O)cc1 [1471-70] | – | 12 | – | 10 | –
20 | N=C(N)c1ccc(CNC(=O)Cn2c(-c3ccc(-c4ccccc4)cc3)c(Cl)nc(NCCc3ccccc3)c2=O)cc1 [1471-71] | – | 0 | – | 6 | –
21 | N=C(N)c1ccc(CNC(=O)Cn2c(-c3ccc(-c4ccccc4)cc3)c(Cl)nc(NCCc3cccnc3)c2=O)cc1 [1471-72] | – | 22 | – | 15 | –
22 | N=C(N)c1ccc(CNC(=O)Cn2c(-c3ccccc3)c(Cl)nc(NC3CCc4ccccc43)c2=O)cc1 (stereo not drawn) [1507-02] | 9.4 | 9 | – | – | –
23 | O=C(Cn1c(-c2ccc(-c3ccccc3)cc2)c(Cl)nc(NCCc2cccc(Cl)c2)c1=O)NCCc1cccnc1 [Example E-0116] | – | – | – | – | 4

Now from value to compound:

Row | IC50 (TF-VIIa; [1]) [µM] | IC50 or % Inhibition Factor Xa (30 µM) (Human factor Xa) [%] | IC50 (TF-VIIa; [2]) [µM] | IC50 or % Inhibition TF-VIIa (30 µM) (TF-VIIa) [%] | % Inhibition Factor Xa (100 µM) (Human factor Xa) [%] | SMILES
24 | 8.17 | 10 | – | – | – | Cc1c(Cl)nc(NCc2ccccc2)c(=O)n1CC(=O)NCc1ccc(C(=N)N)cc1 [1471-1]
25 | 3.62 | 10 | – | – | – | Cc1c(Cl)nc(NCCc2ccc(Cl)cc2)c(=O)n1CC(=O)NCc1ccc(C(=N)N)cc1 [1471-2]
26 | 13.6 | 0 | – | – | – | Cc1c(Cl)nc(NCc2ccncc2)c(=O)n1CC(=O)NCc1ccc(C(=N)N)cc1 [1471-3]
27 | 29.4 | 0 | – | – | – | Cc1c(Cl)nc(NCCN2CCOCC2)c(=O)n1CC(=O)NCc1ccc(C(=N)N)cc1 [1471-4]
28 | 2.85 | 14 | – | – | – | Cc1c(Cl)nc(NCCc2cccc(Cl)c2)c(=O)n1CC(=O)NCc1ccc(C(=N)N)cc1 [1471-6]
29 | – | 4 | 4.28 | – | – | Cc1c(Cl)nc(NCCc2ccccc2)c(=O)n1CC(=O)NCc1ccc(C(=N)N)cc1 [1471-7]
30 | 3.86 | 27 | – | – | – | Cc1c(Cl)nc(NCCc2cccnc2)c(=O)n1CC(=O)NCc1ccc(C(=N)N)cc1 [1471-8]
31 | – | 45 | 0.6 | – | – | N=C(N)c1ccc(CNC(=O)Cn2c(-c3ccccc3)c(Cl)nc(NCCc3ccc(Cl)cc3)c2=O)cc1 [1471-10]
32 | – | 9 | 7.97 | – | – | N=C(N)c1ccc(CNC(=O)Cn2c(-c3ccccc3)c(Cl)nc(NCCN3CCOCC3)c2=O)cc1 [1471-12]
33 | 0.82 | 23 | – | – | – | N=C(N)c1ccc(CNC(=O)Cn2c(-c3ccccc3)c(Cl)nc(NCCc3cccnc3)c2=O)cc1 [1471-16]
34 | – | 26 | – | 33 | – | N=C(N)c1ccc(CNC(=O)Cn2c(-c3ccc(Cl)cc3)c(Cl)nc(NCc3ccncc3)c2=O)cc1 [1471-19]
35 | – | 34 | – | 42 | – | N=C(N)c1ccc(CNC(=O)Cn2c(-c3ccc(Cl)cc3)c(Cl)nc(NCCN3CCOCC3)c2=O)cc1 [1471-20]
36 | – | 36 | 8.88 | – | – | N=C(N)c1ccc(CNC(=O)Cn2c(-c3ccc(Cl)cc3)c(Cl)nc(NCCc3ccccc3)c2=O)cc1 [1471-23]
37 | 4.19 | 16 | – | – | – | N=C(N)c1ccc(CNC(=O)Cn2c(-c3cccc(Cl)c3)c(Cl)nc(NCc3ccncc3)c2=O)cc1 [1471-27]
38 | 2.18 | 21 | – | – | – | N=C(N)c1ccc(CNC(=O)Cn2c(-c3cccc(Cl)c3)c(Cl)nc(NCCc3ccncc3)c2=O)cc1 [1471-29]
39 | 0.83 | 41 | – | – | – | N=C(N)c1ccc(CNC(=O)Cn2c(-c3cccc(Cl)c3)c(Cl)nc(NCCc3cccc(Cl)c3)c2=O)cc1 [1471-30]

Row | IC50 (TF-VIIa; [1]) [µM] | IC50 or % Inhibition Factor Xa (30 µM) (Human factor Xa) [%] | IC50 (TF-VIIa; [2]) [µM] | IC50 or % Inhibition TF-VIIa (30 µM) (TF-VIIa) [%] | % Inhibition Factor Xa (100 µM) (Human factor Xa) [%] | SMILES
40 | 1.19 | 25 | – | – | – | N=C(N)c1ccc(CNC(=O)Cn2c(-c3cccc(Cl)c3)c(Cl)nc(NCCc3cccnc3)c2=O)cc1 [1471-32]
41 | – | 22 | – | 31 | – | COc1ccc(-c2c(Cl)nc(NCc3ccccc3)c(=O)n2CC(=O)NCc2ccc(C(=N)N)cc2)cc1 [1471-33]
42 | – | 6 | – | 11 | – | COc1ccc(-c2c(Cl)nc(NCCN3CCOCC3)c(=O)n2CC(=O)NCc2ccc(C(=N)N)cc2)cc1 [1471-36]
43 | – | 11 | – | 40 | – | COc1ccc(-c2c(Cl)nc(NCCc3cccnc3)c(=O)n2CC(=O)NCc2ccc(C(=N)N)cc2)cc1 [1471-40]
44 | 18.3 | 34 | – | – | – | N=C(N)c1ccc(CNC(=O)Cn2c(-c3ccc4c(c3)OCO4)c(Cl)nc(NCc3ccccc3)c2=O)cc1 [1471-41]
45 | 10.5 | 15 | – | – | – | N=C(N)c1ccc(CNC(=O)Cn2c(-c3ccc4c(c3)OCO4)c(Cl)nc(NCCc3ccc(Cl)cc3)c2=O)cc1 [1471-42]
46 | – | 13 | – | 34 | – | N=C(N)c1ccc(CNC(=O)Cn2c(-c3ccc4c(c3)OCO4)c(Cl)nc(NCCN3CCOCC3)c2=O)cc1 [1471-44]
47 | 13 | 21 | – | – | – | N=C(N)c1ccc(CNC(=O)Cn2c(-c3ccc4c(c3)OCO4)c(Cl)nc(NCCc3cccc(Cl)c3)c2=O)cc1 [1471-46]
48 | 15.7 | 17 | – | – | – | N=C(N)c1ccc(CNC(=O)Cn2c(-c3ccc4c(c3)OCO4)c(Cl)nc(NCCc3cccnc3)c2=O)cc1 [1471-48]
49 | 12.4 | 0 | – | – | – | CCc1c(Cl)nc(NCCc2ccc(Cl)cc2)c(=O)n1CC(=O)NCc1ccc(C(=N)N)cc1 [1471-58]
50 | 13 | 0 | – | – | – | CCc1c(Cl)nc(NCCN2CCOCC2)c(=O)n1CC(=O)NCc1ccc(C(=N)N)cc1 [1471-60]
51 | 5 | 0 | – | – | – | CCc1c(Cl)nc(NCCc2ccncc2)c(=O)n1CC(=O)NCc1ccc(C(=N)N)cc1 [1471-61]
52 | 3.6 | 21 | – | – | – | N=C(N)c1ccc(CNC(=O)Cn2c(-c3ccccc3)c(Cl)nc(NCc3ccccc3Cl)c2=O)cc1 [1507-03]
53 | 4.7 | 10 | – | – | – | N=C(N)c1ccc(CNC(=O)Cn2c(-c3ccccc3)c(Cl)nc(NCCCn3ccnc3)c2=O)cc1 [1507-05]
54 | – | 1 | – | 7 | – | N=C(N)c1ccc(CNC(=O)Cn2c(-c3ccccc3)c(Cl)nc(NC3Cc4ccccc4C3)c2=O)cc1 [1507-08]
55 | – | – | – | – | 5 | O=C(Cn1c(-c2ccc(-c3ccccc3)cc2)c(Cl)nc(NCCc2ccc(Cl)cc2)c1=O)NCCc1cccnc1 [Example E-0119]
